Reference: PMC6401476, “The Evolution of SlyA/RovA Transcription Factors from Repressors to Countersilencers in Enterobacteriaceae” (mBio, 2019)

Columns and labels:
SlyA [1] = molecular target: T1, SlyA (Salmonella enterica, UniProt P40676); assay: intrinsic tryptophan fluorescence quenching; 1H, […]-TROSY NMR; type: binding
T1 construct: His-SlyA (N-terminal 6×His-tagged)

SlyA [2] = molecular target: T1, SlyA; assay: crystal structure at […] Å; 1H, […]-TROSY NMR; supported by in vitro transcription; type: binding
[3] = molecular target: the molecule itself; assay: crystal structure; His-SlyA co-crystallised with 75 mM sodium salicylate; sitting-drop vapor diffusion, room temperature; 20% PEG 400, 10% glycerol, 0.1 M phosphate-citrate buffer pH 4.2, 0.2 M ammonium sulfate; space group P21212, two SlyA molecules in the asymmetric unit, each dimer completed by space group symmetry

T1 sequence (P40676 whole entry): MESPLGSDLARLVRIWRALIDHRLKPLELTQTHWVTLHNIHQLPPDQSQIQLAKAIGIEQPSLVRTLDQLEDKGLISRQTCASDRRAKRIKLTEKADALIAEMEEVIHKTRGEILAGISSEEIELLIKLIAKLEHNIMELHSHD

In the case of `O=C(O)c1ccccc1` [benzoate], the Kd (SlyA [1]) is reported as about 40 µM.

With `O=C(O)c1ccccc1O` [salicylate] the “crystal structure at 2.3 Å; 1H,15N-TROSY NMR; supported by in vitro transcriptio” value (SlyA [2]) was “The crystal structure of the SlyA dimer with salicylate bound at sites I and II was determined”.

B1: SlyA of Salmonella enterica serovar Typhimurium (His-SlyA) (natural protein)
chain: ESPLGSDLARLVRIWRALIDHRLKPLELTQTHWVTLHNIHQLPPDQSQIQLAKAIGIEQPSLVRTLDQLEDKGLISRQTCASDRRAKRIKLTEKADALIAEMEEVIHKTRGEILAGISSEEIELLIKLIAKLEHNIMELHSHD
notes: SlyA, MarR family transcription factor, Salmonella enterica serovar Typhimurium; the tips of the wings are not seen in the model; Residue numbers in the text are based on an alignment of SlyA orthologs and are not in register with the numbers of the deposited PDB file 3DEU; Strains were built in the ATCC 14028s background; also called SlyASTM; SlyASTm; not shown: 6xHis, N-terminal, kept
For B1, the “stoichiometry N” value [3] was 2.
